Source: US5766620A, “Buccal delivery of glucagon-like insulinotropic peptides” (TheraTech, Inc., priority 1995, dated 1998)
Read-outs that look alike come from different tables or passages of the source.

Assays:
blood glucose = assay: Blood glucose after buccal bilayer tablet, double-blind placebo-controlled crossover; conditions: 400 μg buccal bilayer tablet, fasting healthy volunteers
From the text: This example describes a double-blind, placebo-controlled, crossover comparison with random assignment to treatment sequence. […] Inclusion criteria for the volunteers were normal glucose tolerance, weight within 22<BMI<26, informed consent to participate in the study, and age between 20 and 60 years. […]
Subject numbers were allotted to the subjects in the order in which they were enrolled in the study. The number allotted to each subject determined the treatment sequence received. […]
(§1) Subjects were instructed to fast the night before a treatment. […] Standard safety variables were determined under fasting conditions before each experiment. Blood glucose was monitored frequently and glucose infusion was available in case of hypoglycemia (<2.5 mmol/L). […]
(§2) Blood samples were taken for pharmacokinetic analysis 10 minutes before application of the drug, and at 5, 10, 15, 20, 25, 30, 40, 50, 60, 75, 90, 120, 150, 180, 210, 240, and 270 minutes and 6 and 8 hours after application of the drug. […] The peptide content of bilayer tablet samples was also analyzed by HPLC. […]

clinical = assay: clinical
From the text: This example describes a double-blind, placebo-controlled, crossover comparison with random assignment to treatment sequence. […] Inclusion criteria for the volunteers were normal glucose tolerance, weight within 22<BMI<26, informed consent to participate in the study, and age between 20 and 60 years. Exclusion criteria were impaired glucose tolerance (2-hour glucose tolerance test; OGTT), gastrointestinal symptoms, ongoing medication or illness, acute infection, abnormal laboratory variables (hemoglobin, hematocrit, leucocytes, creatinine, bilirubin, calcium, potassium, sodium, alkaline phosphatase, gamma-GT, SGOT, SGPT, cholesterol, and triglycerides), and blood pressure greater than 185 mmHg systolic and/or 90 mmHg diastolic.
Subject numbers were allotted to the subjects in the order in which they were enrolled in the study. The number allotted to each subject determined the treatment sequence received. Subjects receiving treatment sequence 1 were treated with drug followed by placebo, and subjects receiving treatment sequence 2 were treated with placebo followed by drug.
as §1, with “treatment. At the clinic, the subjects were given either a drug-containing bilayer tablet or placebo.” for “treatment.”
as §2
The data summarized in FIG. 7 were analyzed by AUC to provide an estimate of relative bioavailability by buccal administration as compared to subcutaneous administration.

[1] = Published subcutaneous administration of GLP-1 to fasting subjects (Nauck, FIG. 8); format: in vivo, human
From the text: A study by M. A. Nauck of subcutaneous administration of GLP-1 to fasting subjects illustrates changes in the pharmocokinetics with dose (FIG. 8). This could be due to changes in bioavailability with dose, changes in clearance with dose, or a combination of both effects.

[2] = intravenous infusion, fasting individuals, published data; cited from earlier work
[3] = after administration, 400 μg buccal bilayer tablet

Compound | hypoglycemia (blood glucose) | time of onset of sharp rise of plasma GLP-1(7-36)amide level (clinical; [3]) [min] | time until which elevated GLP-1(7-36)amide levels remain in the blood (clinical; [3]) | F rel (clinical; human, plasma, 400 ug) [%] | bioavailability by subcutaneous administration relative to intravenous administration ([1]; subcutaneous) [%] | clearance ([1]; subcutaneous administration, regression analysis of all results) | clearance [2] [mL/min/kg]
CC[C@H](C)[C@H](NC(=O)[C@H](Cc1ccccc1)NC(=O)[C@H](CCC(=O)O)NC(=O)[C@H](CCCCN)NC(=O)[C@H](C)NC(=O)[C@H](C)NC(=O)[C@H](CCC(N)=O)NC(=O)CNC(=O)[C@H](CCC(=O)O)NC(=O)[C@H](CC(C)C)NC(=O)[C@H](Cc1ccc(O)cc1)NC(=O)[C@H](CO)NC(=O)[C@H](CO)NC(=O)[C@@H](NC(=O)[C@H](CC(=O)O)NC(=O)[C@H](CO)NC(=O)[C@@H](NC(=O)[C@H](Cc1ccccc1)NC(=O)[C@@H](NC(=O)CNC(=O)[C@H](CCC(=O)O)NC(=O)[C@H](C)NC(=O)[C@@H](N)Cc1c[nH]cn1)[C@@H](C)O)[C@@H](C)O)C(C)C)C(=O)N[C@@H](C)C(=O)N[C@@H](Cc1c[nH]c2ccccc12)C(=O)N[C@@H](CC(C)C)C(=O)N[C@H](C(=O)N[C@@H](CCCCN)C(=O)NCC(=O)N[C@@H](CCCNC(=N)N)C(N)=O)C(C)C [GLP-1(7-36)amide] | does not result in hypoglycemia | ≤ 5 | about 150 minutes | 27 | – | – | –
GLP-1: GLP-1 given intravenously (7-37 and 7-36 amide) or subcutaneously to fasting subjects in published studies used for comparison | – | – | – | – | 38 | about 40 ml/min/kg | ~15
